What was measured:
Assay type in all cases: cell-based
[1] = tested on: MDR sensitive cancer cell lines; assay: Inhibition of cell growth against MDR sensitive cancer cell lines; conditions: result in words
[2] = tested on: Squamous Cell Carcinoma FADU; assay: Inhibition of cell growth, Squamous Cell Carcinoma FADU (MDR −, tubulin wild type); conditions: concentration 0.05 ug/mL
[3] = tested on: Ovarian Carcinoma 1A9PTX10; assay: Inhibition of cell growth, Ovarian Carcinoma 1A9PTX10 (MDR +, tubulin mutant)
[4] = tested on: Breast Cancer MCF-7 NCI-AR; assay: Inhibition of cell growth, Breast Cancer MCF-7 NCI-AR (MDR +, tubulin wild type); conditions: for Inhibition: MCF-7 NCI-AR
[5] = tested on: Neuroblastoma SK-N-AS; assay: Inhibition of cell growth, Neuroblastoma SK-N-AS (MDR −, tubulin wild type)
[6] = Homo sapiens, MCF7, MCF-7 NCI-AR, concentration 0.5 ug/mL

C=CC1O[C@H]2C[C@H]3OC[C@@]3(OC(C)=O)[C@H]3[C@H](OC(=O)c4ccccc4)[C@]4(O)C[C@H](OC(=O)[C@H](O)[C@H](CC(C)C)NC(=O)OC(C)(C)C)C(C)=C([C@H](OC(C)=O)[C@H](O1)[C@]23C)C4(C)C (stereo partly drawn) [TPI 287, 7,9-acrolein acetal-10-α-acetyl-2′-R,S-hydroxy-3′-S-isobutyl-3′-N-t-butoxy carbonyl taxane]
inhibition of cell growth against MDR sensitive cancer cell lines [1]: excellent inhibition of cell growth | inhibition at 0.05 µg/mL ([2]; Homo sapiens): 56% | inhibition at 0.1 µg/mL ([3]; Homo sapiens, 1A9/ptx-10, 1A9PTX10, concentration 0.1 ug/mL): 51% | inhibition at 0.2 µg/mL ([3]; Homo sapiens, 1A9/ptx-10, 1A9PTX10, concentration 0.2 ug/mL): 85% | inhibition at 0.031 µg/mL ([4]; Homo sapiens, MCF7, MCF-7 NCI-AR, concentration 0.031 ug/mL): 13% | inhibition at 0.061 µg/mL ([4]; Homo sapiens, MCF7, MCF-7 NCI-AR, concentration 0.061 ug/mL): 22% | inhibition at 0.125 µg/mL ([4]; Homo sapiens, MCF7, MCF-7 NCI-AR, concentration 0.125 ug/mL): 37% | inhibition at 0.25 µg/mL ([4]; Homo sapiens, MCF7, MCF-7 NCI-AR, concentration 0.25 ug/mL): 47% | inhibition at 0.5 µg/mL [4, 6]: 80% | inhibition at 0.05 µg/mL ([5]; Homo sapiens, concentration 0.05 ug/mL): 58%

C=CC1O[C@H]2C[C@H]3OC[C@@]3(OC(C)=O)[C@H]3[C@H](OC(=O)c4ccccc4)[C@]4(O)C[C@H](OC(=O)[C@H](O)[C@@H](NC(=O)c5ccccc5)c5ccccc5)C(C)=C([C@H](OC(C)=O)[C@H](O1)[C@]23C)C4(C)C (stereo partly drawn) [TPI 251]
inhibition of cell growth against MDR sensitive cancer cell lines [1]: excellent inhibition of cell growth | inhibition at 0.25 µg/mL ([3]; Homo sapiens, 1A9/ptx-10, 1A9PTX10, concentration 0.25 ug/mL): 93% | inhibition at 0.5 µg/mL ([3]; Homo sapiens, 1A9/ptx-10, 1A9PTX10, concentration 0.5 ug/mL): 96% | inhibition at 0.5 µg/mL [4, 6]: 45% | inhibition at 1 µg/mL ([4]; Homo sapiens, MCF7, MCF-7 NCI-AR, concentration 1.0 ug/mL): 65% | inhibition at 2 µg/mL ([4]; Homo sapiens, MCF7, MCF-7 NCI-AR, concentration 2.0 ug/mL): 94%

CC(=O)O[C@H]1C(=O)[C@@]2(C)[C@H]([C@H](OC(=O)c3ccccc3)[C@]3(O)C[C@H](OC(=O)[C@H](O)[C@@H](NC(=O)c4ccccc4)c4ccccc4)C(C)=C1C3(C)C)[C@]1(OC(C)=O)CO[C@@H]1C[C@@H]2O [Paclitaxel, reference compound]
Inhibition [2]: 47% | Inhibition ([3]; 1A9PTX10, concentration 5 ug/mL): 55% | Inhibition ([4]; concentration 40 ug/mL): 55% | Inhibition ([5]; concentration 0.1 ug/mL): 54%

C=CC1O[C@H]2C[C@H]3OC[C@@]3(OC(C)=O)[C@H]3[C@H](OC(=O)c4ccccc4)[C@]4(O)C[C@H](OC(=O)[C@H](O)[C@@H](NC(=O)c5ccccc5)c5ccccc5)C(C)=C([C@H](OC(C)=O)[C@H](O1)[C@]23C)C4(C)C (stereo partly drawn) [TPI 285]
inhibition of cell growth against MDR sensitive cancer cell lines [1]: excellent inhibition of cell growth | Inhibition ([4]; concentration 0.5 ug/mL): 41% | Inhibition ([4]; concentration 1.0 ug/mL): 51% | Inhibition ([4]; concentration 2.0 ug/mL): 85%

From patent publication US10238621B2, “9,10-α,α-OH-taxane analogs and methods for production thereof” (priority 2003, dated 2019)
